# Reference: patent publication US7435790B2, “Dihydroxypropyl cysteine peptide and agent containing this peptide” (Helmholtz-Zentrum fuer Infektionsforschung GmbH, priority 1996, dated 2008)
# Assays:
# [1] = test system: interferon-treated murine peritoneal macrophages; experiment: Nitrite/nitrate (nitrogen monoxide) release on stimulation of interferon-treated murine peritoneal macrophages; assay type: cell-based; conditions: mouse system
# Procedure: The lipopeptide is prepared from Mycoplasma fermentans (for example PG18). The isolation of the lipopeptide from mycoplasma is carried out by the following known separation procedure (Mühlradt et al. in Biochemistry, 35 (1996) 7781-7786). • (i) Delipidation of the mycoplasma using chloroform/methanol. • (ii) Extraction of the delipidated mycoplasma using hot 25 mM octyl glucoside. • (iii) Dialysis of the detergent extract. • (iv) Concentration of the extract by lyophilisation. • (v) Reversed-phase chromatography on a C8 column using a water/2-propanol gradient. Detection of the biological activity is effected by measuring nitrite and nitrate as the secondary products of nitrogen monoxide, which is liberated on stimulation of interferon-treated murine peritoneal macrophages.
# Immun., 59 (1991) 3962-3968 and Feng & Lo in Infect. Immun., 62 (1994) 3916-3921. Its half-maximum effective concentration (Max/2) is 20 pg/ml or 10^−11 M in the mouse system. That effective concentration is lower by a factor of from 10^2 to 10^3 than the corresponding known concentrations of similar natural or synthetic lipopeptides.
# macrophages of humans = conditions: cited from earlier work
# macrophages of mice = conditions: cited from earlier work
substance,measurement,setting,value
"Dhc-GNN DES NIS FKE K: S-(2,3-dihydroxypropyl)-cysteine peptide from Mycoplasma fermentans with two ester-bonded long-chain fatty acids (C16:0 and C18:0/C18:1)",half-maximum effective concentration (Max/2),[1],20 pg/mL
same,EC50,[1]; read-out: half-maximum effective concentration (Max/2),0.01 nM
same,release of cytokines and prostaglandins from macrophages,macrophages of humans,stimulating macrophages of mice and humans to release cytokines and prostaglandins
same,release of cytokines and prostaglandins from macrophages,macrophages of mice,stimulating macrophages of mice and humans to release cytokines and prostaglandins
